Data on five molecules can be found in patent publication US10022380B2, “Treatment of solid tumours” (Vivolux AB, priority 2012, dated 2018).

The subject of series [1] is HCT116 MCS. Type of series: cell-based.
Description: Cell viability was determined using the acid phosphatase test.
(§1) HCT116 colon carcinoma cells were maintained in McCoy's 5A modified medium/10% fetal calf serum at 37° C. in 5% CO2. […] A cell suspension containing 10,000 cells (200 μl) was added to each well of poly-HEMA coated 96 well plates. The wells were then overfilled by adding an additional 170 μl media to acquire a convex surface curvature. Plasticine spacers (3 mm) were placed in the corners of each plate to prevent the lids from touching the media. The plates were then inverted in order to allow the cells to sediment to the liquid/air interface and incubated in gentle shaking. After 24 hrs incubation the plates were returned to normal. First excess media was removed by aspiration and then plasticine spacers. The plates were incubated for 4 days prior to drug treatment.
Viability measurements were performed by the acid phosphatase (APH) method described by Friedrich et al. (14). Background activity was subtracted.
A further series concerns LC3-I and LC3-II. Nature of the series: LC3-I / LC3-II induction in HCT116 (western blot, LC3 staining). Type of series: cell-based. Conditions: for Induction of LC3-I and LC3-II: HCT116 cells. How it is done: FIG. 4B: Staining of CB21-treated cells with an antibody to LC3. […] Cells were treated for 6 hours (6 μM), and then incubated further. Protein were extracted and subjected to western blot analysis. […] FIGS. 4F-4H: Morphology of peripheral and core cells visualized by electron microscopy. MCS were treated for 6 hours with 6 μM C21 and incubated further in drug-free medium for the times indicated and sectioned.
MCSs contain mostly non-proliferating cells. […] The mechanism(s) of action was studied in more detail. […] LC3-II (the PE-conjugated form of LC3) is a protein marker regarded to be most reliably associated with autophagosomes (19).

Another series concerns mTOR substrate 4EBP1. Nature of the series: Phosphorylation of mTOR substrate 4EBP1 and of AKT (western blot). Conditions: HCT116 cells. For orientation: Immunoblotting shows a protein as a band on a membrane.
In another series the test system is monolayer HCT116 cells. Nature of the series: Proliferation / viability of monolayer HCT116 cells.
The subject of series [2] is HCT116 MCS. Nature of the series: Pimonidazole staining of sectioned spheroids (indirect measure of respiration/hypoxia). In kind it is cell-based.
Description: as §1
MCS produced by the hanging drop method in 96 well plates were fixed in paraformaldehyde, dehydrated, embedded in paraffin and sectioned. Each sample contained 32 MCS (MCS from each 96 well plate were pooled into 3 groups). The sections were deparaffinized with xylene, rehydrated and microwaved, and then incubated overnight with the monoclonal primary antibodies diluted in 1% (weight/volume) bovine serum albumin and visualized by standard avidin-biotin-peroxidase complex technique (Vector Laboratories, Burlingame, Calif., USA). Counterstaining was performed with Mayer's haematoxylin. […]

Description for mTOR substrate 4EBP1: Cell extract proteins were resolved by Tris-Acetate PAGE gels (Invitrogen, Carlsbad, Calif.) and transferred onto a polyvinylidene difluoride (PVDF) membrane. The membranes were incubated overnight with antibodies, washed and incubated with HRP-conjugated anti-rabbit Ig (Amersham Biosciences, Little Chalfont, UK) for 1 h. Peroxidase activity was developed by SuperSignal West Pico (Pierce Biotechnology, Rockford, Ill.) according to manufacturer's instructions.
Description for monolayer HCT116 cells: HCT116 MCS were treated for 6 hours with 6 μM CB21, followed by changing to drug-free medium and further incubation. MCS were sectioned and stained for active caspase-3. […] Cells were incubated for 30 minutes with EdU, fixed and analyzed by ArrayScan. […] Cells were seeded at 7,000 or 70,000 per well in 96 well plates in the presence or absence of CB21.
Cells were fixed and stained for LC3 after drug treatment at the times indicated. […] Cells were treated with 6 μM CB21 and/or 10 μM bafilomycin A and cells were photographed at the times Indicated. […] HCT116 cells were treated with 6 μM CB21 and/or 10 μM chloroquine. Cell proliferation was monitored by calculation of culture confluency.
HCT116 colon carcinoma cells were maintained in McCoy's 5A modified medium/10% fetal calf serum at 37° C. in 5% CO2. MCS were prepared using a modification of our previously described method (12). A cell suspension containing 10,000 cells (200 μl) was added to each well of poly-HEMA coated 96 well plates. The wells were then overfilled by adding an additional 170 μl media to acquire a convex surface curvature. […] Caspase cleaved keratin-18 (K18-Asp396) was determined using 25 mL medium/extract using the M30 CytoDeath ELISA assay (a variant of the M30-Apoptosense® ELISA (13) developed for in-vitro use (Peviva AB, Bromma, Sweden)). […]

For the molecule `Cn1c(=O)n(-c2ccc(C(C)(C)C#N)cc2)c2c3cc(-c4cnc5ccccc5c4)ccc3ncc21` [NVP-BEZ235], the “viability of the cells in the core of the MCS” value in the series on HCT116 MCS [1] was “did not affect the viability”. The “Induction of LC3-I and LC3-II” value in the series on LC3-I and LC3-II (6 h) was “weak induction”; in the series on LC3-I and LC3-II (24 h) it was “no induction observed”. For the same molecule, the 4EBP1 phosphorylation result in the series on mTOR substrate 4EBP1 was “decrease”.

Regarding `CCN(CC)CCCC(C)Nc1ccnc2cc(Cl)ccc12` (stereo not drawn) [CQ, Chloroquine], the “proliferation / cell death of monolayer HCT116 cells” value with monolayer HCT116 cells (10 μM chloroquine, 6 μM CB21, culture confluency) is “no effect”. As to `CO/C1=C\C(C)=C\[C@@H](C)[C@@H](O)[C@@H](C)C/C(C)=C/C=C/[C@H](OC)[C@@H]([C@@H](C)[C@@H](O)[C@H](C)[C@@]2(O)C[C@@H](O)[C@H](C)[C@@H](C(C)C)O2)OC1=O` [bafilomycin A], the “appearance of large cytoplasmic LC3-II positive vesicles” value with LC3-I and LC3-II (HCT116 cells treated with CB21, 10 μM Bafilomycin A) is recorded as “suppresses the appearance of large cytoplasmic LC3-II positive vesicles”. For the same molecule, in the series on monolayer HCT116 cells (HCT116, 10 μM bafilomycin A, 6 μM CB21), the “time at which cytotoxicity was observed” value is about 72 h. Regarding `CO[C@H]1C[C@@H]2CC[C@@H](C)[C@@](O)(O2)C(=O)C(=O)N2CCCC[C@H]2C(=O)O[C@H]([C@H](C)C[C@@H]2CC[C@@H](O)[C@H](OC)C2)CC(=O)[C@H](C)/C=C(\C)[C@@H](O)[C@@H](OC)C(=O)[C@H](C)C[C@H](C)/C=C/C=C/C=C/1C` [Rapamycin], the “Pimonidazole positive area (%)” value with HCT116 MCS [2] (10 nM, 5 h) turned out to be 42.2%. On to `N#CC(C#N)=NNc1cccc(Cl)c1` [CCCP, carbonylcyanide-3-chlorophenylhydrazone], for which the “Pimonidazole positive area (%)” value in the series on HCT116 MCS [2] (10 μM, 6 h) is reported as 79.9%.
